Experimental data from ChEMBL document CHEMBL1201862, “PubChem BioAssay data set” (2004).
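Following 48 hours of exposure in 96-well plates, responses at five concentrations were used to interpolate endpoints linearly. The concentration for 50% growth inhibition is given as GI50.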 The source made the active and inactive calls. Rule as the data show it: active = GI50 up to about 1.1 µM and inactive = higher.

What was measured:
Assay in all cases: growth of human tumour cells (NCI), 48 h
786-0 = system: 786-0
A549 = system: A549
ACHN = system: ACHN
CAKI-1 = system: CAKI-1
CCRF-CEM = system: CCRF-CEM
COLO 205 = system: COLO 205
DU-145 = system: DU-145
HCC 2998 = system: HCC 2998
HCT-116 = system: HCT-116
HCT-15 = system: HCT-15
HL-60 = system: HL-60
HOP-62 = system: HOP-62
HT-29 = system: HT-29
Hs-578T = system: Hs-578T
IGROV-1 = system: IGROV-1
K562 = system: K562
KM12 = system: KM12
M14 = system: M14
MCF7 = system: MCF7
MDA-MB-435 = system: MDA-MB-435
NCI-H23 = system: NCI-H23
NCI-H460 = system: NCI-H460
NCI-H522 = system: NCI-H522
NCI/ADR-RES = system: NCI/ADR-RES
OVCAR-3 = system: OVCAR-3
OVCAR-4 = system: OVCAR-4
SF-295 = system: SF-295
SF-539 = system: SF-539
SK-MEL-28 = system: SK-MEL-28
SK-MEL-2 = system: SK-MEL-2
SK-OV-3 = system: SK-OV-3
SN12C = system: SN12C
SNB-75 = system: SNB-75
SR = system: SR
SW-620 = system: SW-620
T47D = system: T47D
TK-10 = system: TK-10
U-251 = system: U-251
UACC-62 = system: UACC-62
UO-31 = system: UO-31
A498 = system: A498
EKVX = system: EKVX
HOP-92 = system: HOP-92
LOX IMVI = system: LOX IMVI
MDA-MB-231 = system: MDA-MB-231
MDA-N = system: MDA-N
MOLT-4 = system: MOLT-4
Malme-3M = system: Malme-3M
NCI-H226 = system: NCI-H226
OVCAR-5 = system: OVCAR-5
OVCAR-8 = system: OVCAR-8
PC-3 = system: PC-3
RPMI-8226 = system: RPMI-8226
RXF 393 = system: RXF 393
SF-268 = system: SF-268
SK-MEL-5 = system: SK-MEL-5
SNB-19 = system: SNB-19
UACC-257 = system: UACC-257
BT-549 = system: BT-549

Question: For CC1(C)N=C(N)N=C(N)N1c1ccc(CCCCCCc2ccc(S(=O)(=O)F)cc2)cc1, which GI50 (786-0) is on record?
Answer: < 0.01 µM (active)

Question: And the GI50 (A549)?
Answer: < 0.0376 µM (active)

Question: And the GI50 (ACHN)?
Answer: 0.274 µM (active)

Question: What about the GI50 (CAKI-1) of the same compound?
Answer: 12.3 µM (inactive)

Question: What about the GI50 (CCRF-CEM) of the same compound?
Answer: < 0.01 µM (active)

Question: What about the GI50 (COLO 205) of the same compound?
Answer: 0.144 µM (active)

Question: And the GI50 (DU-145)?
Answer: 0.421 µM (active)

Question: And the GI50 (HCC 2998)?
Answer: 2.23 µM (inactive)

Question: And the GI50 (HCT-116)?
Answer: 17 nM (active)

Question: What about the GI50 (HCT-15) of the same compound?
Answer: 0.857 µM

Question: What about the GI50 (HL-60) of the same compound?
Answer: 0.132 µM (active)

Question: What about the GI50 (HOP-62) of the same compound?
Answer: 1.19 µM (inactive)

Question: And the GI50 (HT-29)?
Answer: < 0.0468 µM (active)

Question: What about the GI50 (Hs-578T) of the same compound?
Answer: 2.18 µM (inactive)

Question: And the GI50 (IGROV-1)?
Answer: < 0.0395 µM (active)

Question: And the GI50 (K562)?
Answer: < 0.0105 µM (active)

Question: What about the GI50 (KM12) of the same compound?
Answer: 0.276 µM (active)

Question: And the GI50 (M14)?
Answer: 1.24 µM (inactive)

Question: What about the GI50 (MCF7) of the same compound?
Answer: 0.0828 µM (active)

Question: What about the GI50 (MDA-MB-435) of the same compound?
Answer: 0.0557 µM (active)

Question: And the GI50 (NCI-H23)?
Answer: 0.0617 µM (active)

Question: And the GI50 (NCI-H460)?
Answer: < 0.0229 µM (active)

Question: And the GI50 (NCI-H522)?
Answer: 1.55 µM (inactive)

Question: What about the GI50 (NCI/ADR-RES) of the same compound?
Answer: 22.9 µM (inactive)

Question: What about the GI50 (OVCAR-3) of the same compound?
Answer: 0.247 µM (active)

Question: And the GI50 (OVCAR-4)?
Answer: 31.8 µM (inactive)

Question: What about the GI50 (SF-295) of the same compound?
Answer: 0.114 µM (active)

Question: What about the GI50 (SF-539) of the same compound?
Answer: < 0.0189 µM (active)

Question: And the GI50 (SK-MEL-28)?
Answer: 3.88 µM (inactive)

Question: What about the GI50 (SK-MEL-2) of the same compound?
Answer: 3.72 µM (inactive)

Question: What about the GI50 (SK-OV-3) of the same compound?
Answer: 8.53 µM (inactive)

Question: And the GI50 (SN12C)?
Answer: 0.028 µM (active)

Question: And the GI50 (SNB-75)?
Answer: 3.36 µM (inactive)

Question: And the GI50 (SR)?
Answer: < 0.01 µM (active)

Question: And the GI50 (SW-620)?
Answer: < 0.0211 µM (active)

Question: And the GI50 (T47D)?
Answer: 8 µM (inactive)

Question: What about the GI50 (TK-10) of the same compound?
Answer: 1.02 µM (active)

Question: What about the GI50 (U-251) of the same compound?
Answer: < 0.0352 µM (active)

Question: What about the GI50 (UACC-62) of the same compound?
Answer: < 10 nM (active)

Question: And the GI50 (UO-31)?
Answer: 14.1 µM (inactive)

Question: How did the GI50 (786-0) turn out when O=C1c2c(ccc3c2CCC3)CC12Cc1ccccc1C2 was run?
Answer: 20.7 µM (inactive)

Question: And the GI50 (A498)?
Answer: 12.4 µM (inactive)

Question: And the GI50 (A549)?
Answer: 22.3 µM (inactive)

Question: And the GI50 (ACHN)?
Answer: 13.7 µM (inactive)

Question: What about the GI50 (CAKI-1) of the same compound?
Answer: 5.94 µM (inactive)

Question: What about the GI50 (CCRF-CEM) of the same compound?
Answer: 11.4 µM (inactive)

Question: What about the GI50 (COLO 205) of the same compound?
Answer: 16.6 µM (inactive)

Question: What about the GI50 (DU-145) of the same compound?
Answer: 17.7 µM (inactive)

Question: And the GI50 (EKVX)?
Answer: 22.5 µM (inactive)

Question: What about the GI50 (HCC 2998) of the same compound?
Answer: 22 µM (inactive)

Question: And the GI50 (HCT-116)?
Answer: 5920 nM (inactive)

Question: What about the GI50 (HCT-15) of the same compound?
Answer: 15.6 µM

Question: And the GI50 (HL-60)?
Answer: 10.4 µM (inactive)

Question: What about the GI50 (HOP-62) of the same compound?
Answer: 20.9 µM (inactive)

Question: What about the GI50 (HOP-92) of the same compound?
Answer: 10.5 µM (inactive)

Question: And the GI50 (HT-29)?
Answer: 9.08 µM (inactive)

Question: And the GI50 (Hs-578T)?
Answer: 21.4 µM (inactive)

Question: What about the GI50 (IGROV-1) of the same compound?
Answer: 29 µM (inactive)

Question: And the GI50 (K562)?
Answer: 20.5 µM (inactive)

Question: And the GI50 (KM12)?
Answer: 22.5 µM (inactive)

Question: What about the GI50 (LOX IMVI) of the same compound?
Answer: 12.7 µM (inactive)

Question: And the GI50 (M14)?
Answer: 19.8 µM (inactive)

Question: What about the GI50 (MCF7) of the same compound?
Answer: 27.5 µM (inactive)

Question: What about the GI50 (MDA-MB-231) of the same compound?
Answer: 22.4 µM (inactive)

Question: What about the GI50 (MDA-MB-435) of the same compound?
Answer: 13.2 µM (inactive)

Question: What about the GI50 (MDA-N) of the same compound?
Answer: 2.94 µM (inactive)

Question: And the GI50 (MOLT-4)?
Answer: 5.04 µM (inactive)

Question: And the GI50 (Malme-3M)?
Answer: 18.9 µM (inactive)

Question: And the GI50 (NCI-H226)?
Answer: 18 µM (inactive)

Question: What about the GI50 (NCI-H23) of the same compound?
Answer: 20.8 µM (inactive)

Question: And the GI50 (NCI-H460)?
Answer: 7.03 µM (inactive)

Question: What about the GI50 (NCI-H522) of the same compound?
Answer: 11.6 µM (inactive)

Question: And the GI50 (NCI/ADR-RES)?
Answer: 28.4 µM (inactive)

Question: What about the GI50 (OVCAR-3) of the same compound?
Answer: 17.7 µM (inactive)

Question: And the GI50 (OVCAR-4)?
Answer: 31.2 µM (inactive)

Question: And the GI50 (OVCAR-5)?
Answer: 30 µM (inactive)

Question: And the GI50 (OVCAR-8)?
Answer: 20.5 µM (inactive)

Question: And the GI50 (PC-3)?
Answer: 25.1 µM (inactive)

Question: What about the GI50 (RPMI-8226) of the same compound?
Answer: 7.38 µM (inactive)

Question: What about the GI50 (RXF 393) of the same compound?
Answer: 11.5 µM (inactive)

Question: And the GI50 (SF-268)?
Answer: 33.7 µM (inactive)

Question: What about the GI50 (SF-295) of the same compound?
Answer: 91.4 µM (inactive)

Question: And the GI50 (SF-539)?
Answer: 12.2 µM (inactive)

Question: What about the GI50 (SK-MEL-28) of the same compound?
Answer: 25 µM (inactive)

Question: What about the GI50 (SK-MEL-2) of the same compound?
Answer: 21.4 µM (inactive)

Question: And the GI50 (SK-MEL-5)?
Answer: 10.9 µM (inactive)

Question: What about the GI50 (SK-OV-3) of the same compound?
Answer: 17.9 µM (inactive)

Question: And the GI50 (SN12C)?
Answer: 19.5 µM (inactive)

Question: And the GI50 (SNB-19)?
Answer: 33.7 µM (inactive)

Question: And the GI50 (SNB-75)?
Answer: 21.5 µM (inactive)

Question: And the GI50 (SW-620)?
Answer: 8.41 µM (inactive)

Question: What about the GI50 (T47D) of the same compound?
Answer: 28.2 µM (inactive)

Question: What about the GI50 (TK-10) of the same compound?
Answer: 21.5 µM (inactive)

Question: What about the GI50 (U-251) of the same compound?
Answer: 22.2 µM (inactive)

Question: And the GI50 (UACC-257)?
Answer: 22.1 µM (inactive)

Question: What about the GI50 (UO-31) of the same compound?
Answer: 5.27 µM (inactive)

Question: How did the GI50 (BT-549) turn out when COc1ccccc1C1(C)SCc2nc3ccccc3n21 (configuration not stated) was run?
Answer: > 10 µM (inactive)

Question: And the GI50 (CCRF-CEM)?
Answer: > 10 µM (inactive)

Question: What about the GI50 (DU-145) of the same compound?
Answer: > 10 µM (inactive)

Question: And the GI50 (HCT-15)?
Answer: > 10 µM

Question: And the GI50 (HL-60)?
Answer: > 10 µM (inactive)

Question: What about the GI50 (HOP-92) of the same compound?
Answer: > 10 µM (inactive)

Question: And the GI50 (K562)?
Answer: > 10 µM (inactive)

Question: And the GI50 (KM12)?
Answer: > 10 µM (inactive)

Question: What about the GI50 (LOX IMVI) of the same compound?
Answer: > 10 µM (inactive)

Question: What about the GI50 (M14) of the same compound?
Answer: > 10 µM (inactive)

Question: What about the GI50 (MCF7) of the same compound?
Answer: > 10 µM (inactive)

Question: And the GI50 (MDA-MB-435)?
Answer: > 10 µM (inactive)

Question: And the GI50 (MDA-N)?
Answer: > 10 µM (inactive)

Question: And the GI50 (MOLT-4)?
Answer: > 10 µM (inactive)

Question: What about the GI50 (Malme-3M) of the same compound?
Answer: > 10 µM (inactive)

Question: And the GI50 (NCI-H226)?
Answer: > 10 µM (inactive)

Question: What about the GI50 (NCI-H23) of the same compound?
Answer: > 10 µM (inactive)

Question: And the GI50 (NCI-H522)?
Answer: > 10 µM (inactive)

Question: What about the GI50 (NCI/ADR-RES) of the same compound?
Answer: > 10 µM (inactive)

Question: What about the GI50 (OVCAR-3) of the same compound?
Answer: > 10 µM (inactive)

Question: What about the GI50 (OVCAR-4) of the same compound?
Answer: > 10 µM (inactive)

Question: And the GI50 (OVCAR-5)?
Answer: > 10 µM (inactive)

Question: And the GI50 (PC-3)?
Answer: > 10 µM (inactive)

Question: And the GI50 (SK-MEL-2)?
Answer: > 10 µM (inactive)

Question: What about the GI50 (SN12C) of the same compound?
Answer: > 10 µM (inactive)

Question: What about the GI50 (SNB-19) of the same compound?
Answer: > 10 µM (inactive)

Question: What about the GI50 (SR) of the same compound?
Answer: > 10 µM (inactive)

Question: And the GI50 (SW-620)?
Answer: > 10 µM (inactive)

Question: What about the GI50 (TK-10) of the same compound?
Answer: > 10 µM (inactive)

Question: What about the GI50 (U-251) of the same compound?
Answer: > 10 µM (inactive)

Question: And the GI50 (UO-31)?
Answer: > 10 µM (inactive)
